Measurements: patent publication US20250277734A1, “M-MIC: Microfluidic Microbiologically Influenced Corrosion Model” (The Texas A&M University System, priority 2017, published 2025)

Test system: Shewanella oneidensis biofilms
Assay: Biocide efficacy on S. oneidensis biofilms grown on carbon steel in single-electrode M-MIC (live/dead staining, confocal microscopy)
Assay type: cell-based
Settings: for increase in the percentage of dead cells: 400 ppm biocide added to 12 hour biofilm on carbon steel, after 4 hours SYTO9/propidium iodide staining, 30° C.
Experimental: Biofilms of Shewanella oneidensis (e.g., S. oneidensis, an iron-reducing bacterium commonly found in MIC sites) were grown on carbon steel in the single-metal system, such as M-MIC 200 as depicted in FIG. 2. In this Example 2, the single electrode comprised steel, the substrate 112 comprised glass, and the structure 104 comprised PDMS. Biofilms were developed in the system at 30° C. with a constant flow of Luria-Bertani growth medium which contained 10 g/l tryptone, 5 g/l yeast extract and 15 g/l sodium chloride being introduced at a flow rate of 0.25 mL/h. After 12 hours, flow of growth medium was stopped and 400 ppm of two common oilfield biocides, glutaraldehyde and tetrakis-hydroxymethyl-phosphonium sulfate (THPS), were added to the biofilms. After 4 hours, live and dead cells in the biofilms were stained using SYTO9 (green) and propidium iodide (red), respectively. Stained biofilms were analyzed for the percentage of live and dead cells to determine biocide efficiency. […] In addition to determining the right biocide, similar studies can be conducted with different biocide concentrations to also determine the appropriate biocide dosage.

| Compound | increase in the percentage of dead cells [fold] | relative biocide effectiveness against S. oneidensis biofilms (400 ppm, 4 hours, under the conditions tested) |
| --- | --- | --- |
| tetrakis-hydroxymethyl-phosphonium sulfate [THPS] | 3.1 | more effective than glutaraldehyde |
| O=CCCCC=O [glutaraldehyde] | 2.1 |  |
